Reference: ChEMBL document CHEMBL2331098, “Unprecedented polyketides from a marine sponge-associated Stachylidium sp” (J Nat Prod, 2013)
Calls of active or inactive are those of the source. The rule behind the calls is not given here.

Columns and labels:
[1] = test system: Mycobacterium tuberculosis; experiment: Antimicrobial activity against antibiotic-resistant Mycobacterium tuberculosis R46 at 50 ug/ml disc level; type: functional, organism-based
[2] = test system: Mycobacterium tuberculosis; experiment: Antimicrobial activity against antibiotic-resistant Mycobacterium tuberculosis MTB72 at 50 ug/ml disc level; type: functional, organism-based

In the case of `COCc1c(C(C)O)cc(O)c(C)c1OC` (configuration not stated), the Activity [1] was “inactive” and the Activity [2] was “inactive”.
